Source: PMC12656268, “Venom Peptides Across Asian and American Tarantulas Utilize Dual Pharmacology to Target Activation and Fast Inactivation of Voltage-Gated Sodium Channels” (Toxins, 2025)
Positions of bridges follow the written chain, without caps; N, C: chain ends. Residues, ends and D or L forms follow the SMILES beside them.

Assays:
NaV1.3 = NaV1.3 (Homo sapiens, UniProt Q9NY46); assay: Slowing of fast inactivation of NaV1.3; assay type: cell-based
Procedure: Sodium channel currents were recorded from HEK293 cells expressing human NaV isoforms together with the β1 auxiliary subunit (SB Drug Discovery, Glasgow, UK) using the QPatch 16X automated whole-cell patch-clamp platform (Sophion Bioscience A/S, Ballerup, Denmark). The external recording solution contained (in mM) the following: 140 NaCl, 3 KCl, 1 CaCl2, 1 MgCl2, 0.1 CdCl2, 20 tetraethylammonium chloride (TEA-Cl), and 5 HEPES; pH was adjusted to 7.3 and osmolarity to 320 mOsm. The internal (pipette) solution consisted of (in mM) the following: 140 CsF, 10 NaCl, 10 HEPES, and 1/5 EGTA/CsOH, also adjusted to pH 7.3 and 320 mOsm. Cells were voltage-clamped at a holding potential of −80 mV, and inward Na^+ currents were evoked by 20 ms depolarizing pulses to 0 mV following a 200 ms hyperpolarizing prepulse to −120 mV. To obtain concentration–response curves, cells at holding potential were incubated for 5 min with increasing concentrations of Oa1a peptides. For determining the potency of Oa1a peptides to inhibit peak current, the maximum peak current within the 20 ms at 0 mV was measured. For determining the potency of Oa1a-NH2 to slow fast inactivation, peak current values were measured at 20 ms of the 0 mV depolarization step. Ion currents (INa) were plotted as I/Imax, where I = current value and Imax = highest current value within the experiment.
(§1) For calcium influx experiments, bioactivity comparisons between venom fractions and controls were based on the difference between the maximal and minimal fluorescence intensity values obtained from single-replicate assays. Electrophysiological data analysis was conducted using GraphPad Prism (version 8; GraphPad Software, San Diego, CA, USA). Nonlinear regression was applied to fit the concentration–response relationships using a variable Hill slope: log(inhibitor) versus normalized response for determining IC50 values, and log(agonist) versus normalized response for EC50 calculations. Reversibility and dissociation kinetics were analyzed by fitting data with a single-phase exponential decay model, while voltage-dependence of steady-state activation and inactivation parameters were derived from Boltzmann sigmoid fits of normalized conductance (G/Gmax) or current (I/Imax) values to determine the half-activation or half-inactivation voltages (V50). Data are expressed as mean ± SEM, where n represents the number of individual cells analyzed.

hNaV1.1 to hNaV1.7 = assay: NaV subtype preference across NaV1.1 to NaV1.7, patch clamp; assay type: cell-based, human; settings: NaV1.1 to NaV1.7, closed-state voltage protocol
Procedure: Unless otherwise specified, all cell culture reagents were obtained from Life Technologies (Carlsbad, CA, USA). The human neuroblastoma cell line SH-SY5Y (ATCC CRL-2266; Manassas, VA, USA) was maintained in RPMI medium supplemented with 15% fetal bovine serum (FBS) and 2 mM L-glutamine. HEK293 cells stably expressing human NaV channel isoforms together with the β1 auxiliary subunit (SB Drug Discovery, Glasgow, UK) were propagated in Minimal Essential Medium (MEM; Sigma-Aldrich, St. Louis, MO, USA) containing 10% FBS, 100 U/mL penicillin, 100 µg/mL streptomycin, 2 mM L-glutamine, and selective antibiotics (blasticidin, geneticin, and zeocin) at concentrations recommended by the supplier. HEK293T cells expressing the human CaV3.2 channel (a generous gift from Prof. Emmanuel Bourinet, Institut de Génomique Fonctionnelle, Université de Montpellier, France, and Prof. Edward Perez-Reyes, University of Virginia School of Medicine, USA) were grown in Dulbecco’s MEM supplemented with 10% FBS, 100 U/mL penicillin, 100 µg/mL streptomycin, and 750 µg/mL geneticin.
Sodium channel currents were recorded from HEK293 cells expressing human NaV isoforms together with the β1 auxiliary subunit (SB Drug Discovery, Glasgow, UK) using the QPatch 16X automated whole-cell patch-clamp platform (Sophion Bioscience A/S, Ballerup, Denmark). The external recording solution contained (in mM) the following: 140 NaCl, 3 KCl, 1 CaCl2, 1 MgCl2, 0.1 CdCl2, 20 tetraethylammonium chloride (TEA-Cl), and 5 HEPES; pH was adjusted to 7.3 and osmolarity to 320 mOsm. The internal (pipette) solution consisted of (in mM) the following: 140 CsF, 10 NaCl, 10 HEPES, and 1/5 EGTA/CsOH, also adjusted to pH 7.3 and 320 mOsm. […] For determining the potency of Oa1a peptides to inhibit peak current, the maximum peak current within the 20 ms at 0 mV was measured. For determining the potency of Oa1a-NH2 to slow fast inactivation, peak current values were measured at 20 ms of the 0 mV depolarization step. […]
as §1, with “Electrophysiological data analysis was conducted using GraphPad Prism (version 8; GraphPad Software, San Diego, CA, USA). Nonlinear regression was applied to fit the concentration–response relationships using a variable Hill slope: log(inhibitor) versus normalized response for determining IC50 values, and log(agonist) versus normalized response for EC50 calculations.” left out

Sequence of NaV1.3 (Q9NY46 whole entry, canonical isoform): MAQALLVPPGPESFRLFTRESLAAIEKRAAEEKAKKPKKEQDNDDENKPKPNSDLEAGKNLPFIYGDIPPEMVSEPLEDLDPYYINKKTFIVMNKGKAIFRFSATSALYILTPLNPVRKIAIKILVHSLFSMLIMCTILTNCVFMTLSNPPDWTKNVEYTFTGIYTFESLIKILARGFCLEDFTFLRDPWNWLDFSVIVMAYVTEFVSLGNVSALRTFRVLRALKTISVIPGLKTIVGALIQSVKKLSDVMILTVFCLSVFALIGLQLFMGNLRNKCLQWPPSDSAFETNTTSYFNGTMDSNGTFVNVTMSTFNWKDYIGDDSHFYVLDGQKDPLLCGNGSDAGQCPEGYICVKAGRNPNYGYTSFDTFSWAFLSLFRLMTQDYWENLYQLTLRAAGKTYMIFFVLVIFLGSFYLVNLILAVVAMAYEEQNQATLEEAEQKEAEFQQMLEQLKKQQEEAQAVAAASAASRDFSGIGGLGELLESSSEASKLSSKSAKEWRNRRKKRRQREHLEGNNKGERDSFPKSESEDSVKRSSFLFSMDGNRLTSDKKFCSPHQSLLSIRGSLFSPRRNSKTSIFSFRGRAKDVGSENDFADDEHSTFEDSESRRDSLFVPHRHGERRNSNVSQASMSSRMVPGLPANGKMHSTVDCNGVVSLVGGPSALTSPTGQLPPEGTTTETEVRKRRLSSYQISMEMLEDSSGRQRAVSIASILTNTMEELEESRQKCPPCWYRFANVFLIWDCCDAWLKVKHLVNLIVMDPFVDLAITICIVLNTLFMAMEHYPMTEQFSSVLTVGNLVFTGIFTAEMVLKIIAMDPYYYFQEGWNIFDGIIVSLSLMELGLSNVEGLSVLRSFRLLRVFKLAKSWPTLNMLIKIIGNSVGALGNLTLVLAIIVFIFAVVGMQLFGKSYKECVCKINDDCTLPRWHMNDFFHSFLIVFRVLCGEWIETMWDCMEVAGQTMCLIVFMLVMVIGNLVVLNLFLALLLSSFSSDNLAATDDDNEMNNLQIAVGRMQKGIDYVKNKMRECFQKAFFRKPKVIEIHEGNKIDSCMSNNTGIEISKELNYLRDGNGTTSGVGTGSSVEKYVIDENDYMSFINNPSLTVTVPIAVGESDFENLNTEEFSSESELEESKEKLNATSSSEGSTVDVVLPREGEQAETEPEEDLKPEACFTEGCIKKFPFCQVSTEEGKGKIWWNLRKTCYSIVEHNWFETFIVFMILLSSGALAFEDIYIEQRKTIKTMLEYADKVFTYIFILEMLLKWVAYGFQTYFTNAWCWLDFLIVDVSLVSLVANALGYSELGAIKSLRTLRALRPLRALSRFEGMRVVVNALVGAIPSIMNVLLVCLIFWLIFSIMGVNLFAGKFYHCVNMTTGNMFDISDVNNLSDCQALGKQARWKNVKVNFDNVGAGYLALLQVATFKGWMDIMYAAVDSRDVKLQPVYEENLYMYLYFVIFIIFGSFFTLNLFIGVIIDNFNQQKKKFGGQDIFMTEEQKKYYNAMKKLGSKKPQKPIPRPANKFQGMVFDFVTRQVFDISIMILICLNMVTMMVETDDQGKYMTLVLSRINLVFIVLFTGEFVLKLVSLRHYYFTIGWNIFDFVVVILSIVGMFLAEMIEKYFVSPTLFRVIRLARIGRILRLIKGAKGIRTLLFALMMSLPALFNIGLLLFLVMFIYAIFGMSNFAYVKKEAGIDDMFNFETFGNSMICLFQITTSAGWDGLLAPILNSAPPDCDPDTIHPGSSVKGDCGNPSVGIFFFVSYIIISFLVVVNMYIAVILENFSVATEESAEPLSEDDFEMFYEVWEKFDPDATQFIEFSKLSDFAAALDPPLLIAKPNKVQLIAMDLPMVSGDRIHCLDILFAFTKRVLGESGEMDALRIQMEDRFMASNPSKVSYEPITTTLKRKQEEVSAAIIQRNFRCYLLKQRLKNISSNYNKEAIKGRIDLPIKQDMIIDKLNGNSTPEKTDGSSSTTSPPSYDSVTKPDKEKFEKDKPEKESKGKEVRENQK
Sequence of NaV1.3 (Q07699 19-218, further chain): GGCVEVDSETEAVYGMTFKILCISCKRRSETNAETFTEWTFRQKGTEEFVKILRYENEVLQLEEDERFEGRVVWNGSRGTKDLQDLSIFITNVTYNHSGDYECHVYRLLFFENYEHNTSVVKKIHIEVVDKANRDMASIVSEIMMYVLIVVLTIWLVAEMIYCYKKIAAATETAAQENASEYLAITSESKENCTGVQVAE

In the case of CC(C)C[C@@H]1NC(=O)[C@H](Cc2ccccc2)NC(=O)[C@H](Cc2ccc(O)cc2)NC(=O)[C@H](CCCNC(=N)N)NC(=O)[C@@H](NC(=O)[C@H](CCC(=O)O)NC(=O)CN)CSSC[C@@H]2NC(=O)[C@@H]3CSSC[C@@H](C(=O)N[C@H](C(=O)N[C@@H](Cc4c[nH]c5ccccc45)C(=O)N[C@@H](CC(=O)O)C(=O)N[C@@H](Cc4c[nH]c5ccccc45)C(=O)N[C@H](C(=O)N[C@@H](Cc4ccccc4)C(=O)O)[C@@H](C)O)C(C)C)NC(=O)[C@H](Cc4c[nH]c5ccccc45)NC(=O)[C@H](CCC(N)=O)NC(=O)[C@H](Cc4c[nH]cn4)NC(=O)[C@H](CCCCN)NC(=O)[C@H](CC(N)=O)NC(=O)[C@H](Cc4c[nH]cn4)NC(=O)[C@H](CSSC[C@H](NC(=O)CNC(=O)CNC1=O)C(=O)N[C@@H](CO)C(=O)N[C@@H](CCC(N)=O)C(=O)NCC(=O)N[C@@H](CCC(=O)O)C(=O)N[C@@H](CCCCN)C(=O)N3)NC(=O)[C@H](C(C)C)NC(=O)[C@H](CC(C)C)NC(=O)[C@H](Cc1c[nH]cn1)NC(=O)[C@H](CCC(=O)O)NC2=O [rOa1a] (H-GECRYFLGGCSQGEKCCEHLVCHNKHQWCVWDWTF-OH; disulfide 3-17, 10-22, 16-29; N-terminus and C-terminus assumed), the “Slowing of fast inactivation of NaV1.3 (in words)” value (NaV1.3; closed-state voltage protocol, current traces, concentrations up to those of IC50 curves) is reported as “strongly slowing the fast inactivation of NaV1.3”, the “Fold less potency in slowing fast inactivation of NaV1.3 compared to sOa1a-NH2” value (NaV1.3; ratio of EC50 values) is reported as 4.8 fold and the “NaV subtype preference of inhibition (in words)” value (hNaV1.1 to hNaV1.7) is reported as “preference for inhibiting NaV1.2, NaV1.3, NaV1.6, and NaV1.7”. The “NaV subtype preference of inhibition (in words)” value (hNaV1.1 to hNaV1.7; listed as recombinant Oa1a) was “preference for inhibiting NaV1.2, NaV1.6, and NaV1.7”.
